Where a name gives a salt, the structure may show the parent alone.
What follows are molecules tested on Acinetobacter baumannii ATCC17978 (assay: Antimicrobial susceptibility testing: 90% growth inhibitory concentration (IC90) determination, Iso-Sensitest broth). Settings: 90% growth inhibitory concentration, Acinetobacter baumannii ATCC17978, Iso-Sensitest broth, OD 600 nm over 16 h; read-out: ATCC17978 IC90.
Type: cell-based
Experimental: Antimicrobial Susceptibility Testing:
90% Growth Inhibitory Concentration (IC90) Determination
The in vitro antimicrobial activity of the compounds was determined according to the following procedure:
The assay used a 10-points Iso-Sensitest broth medium to measure quantitatively the in vitro activity of the compounds against Acinetobacter baumannii ATCC17978 and Acinetobacter baumannii ATCC17961.
Microtiter plates were incubated at 35±2° C.
Bacterial cell growth was determined with the measurement of optical density at λ=600 nm each 20 minutes over a time course of 16 h. Growth inhibition was calculated during the logarithmic growth of the bacterial cells with determination of the concentration inhibiting 50% (IC50) and 90% (IC90) of the growth.

IC90	SMILES
0.25 µM	COc1ccc(-c2cnc3c(Nc4ccc(C(=O)N5CCN(CCN(C)C)CC5)c(C)c4)nccn23)cc1F [Example 35, (4-(2-(dimethylamino)ethyl)piperazin-1-yl)(4-((3-(3-fluoro-4-methoxyphenyl)imidazo[1,2-a]pyrazin-8-yl)amino)-2-methylphenyl)methanone]
0.25 µM	Cc1cc(Nc2nccn3c(-c4ccc(OC(F)F)cc4)cnc23)ccc1C(=O)N1CCC(N2CCN(C)CC2)CC1 [Example 36, (4-((3-(4-(difluoromethoxy)phenyl)imidazo[1,2-a]pyrazin-8-yl)amino)-2-methylphenyl)(4-(4-methylpiperazin-1-yl)piperidin-1-yl)methanone]
0.22 µM	Cc1cc(Nc2nccn3c(-c4ccc(OC(F)F)cc4)cnc23)ccc1C(=O)N1CCN(C(=O)CN(C)C)CC1 [Example 38, 1-(4-(4-((3-(4-(difluoromethoxy)phenyl)imidazo[1,2-a]pyrazin-8-yl)amino)-2-methylbenzoyl)piperazin-1-yl)-2-(dimethylamino)ethanone]
0.26 µM	COc1ccc(-c2cnc3c(Nc4ccc(C(=O)N5CCC(C(=O)N6CCOC(CN)C6)CC5)c(C)c4)nccn23)cc1F (stereo not shown) [Example 39, (4-(2-(aminomethyl)morpholine-4-carbonyl)piperidin-1-yl)(4-((3-(3-fluoro-4-methoxyphenyl)imidazo[1,2-a]pyrazin-8-yl)amino)-2-methylphenyl)methanone hydrochloride]
0.28 µM	CNCCNC(=O)C1CCN(C(=O)c2ccc(Nc3nccn4c(-c5ccc(OC)c(F)c5)cnc34)cc2C)CC1 [Example 40, 1-(4-((3-(3-fluoro-4-methoxyphenyl)imidazo[1,2-a]pyrazin-8-yl)amino)-2-methylbenzoyl)-N-(2-(methylamino)ethyl)piperidine-4-carboxamide hydrochloride]
0.11 µM	COc1ccc(-c2cnc3c(Nc4ccc(C(=O)N5CCN(c6nccn6C)CC5)c(C)c4)nccn23)cc1F [Example 41, (4-((3-(3-fluoro-4-methoxyphenyl)imidazo[1,2-a]pyrazin-8-yl)amino)-2-methylphenyl)(4-(1-methyl-1H-imidazol-2-yl)piperazin-1-yl)methanone]
0.27 µM	COc1ccc(-c2cnc3c(Nc4ccc(C(=O)N5CCNCC5CO)c(C)c4)nccn23)cc1F (stereo not shown) [Example 42, (4-((3-(3-fluoro-4-methoxyphenyl)imidazo[1,2-a]pyrazin-8-yl)amino)-2-methylphenyl)(2-(hydroxymethyl)piperazin-1-yl)methanone]
0.28 µM	Cc1cc(Nc2nccn3c(-c4ccc(OC(F)F)cc4)cnc23)ccc1C(=O)N1CCC(C(=O)N2CC3(C2)CN(C2CC2)C3)CC1 [Example 44, (4-(6-cyclopropyl-2,6-diazaspiro[3.3]heptane-2-carbonyl)piperidin-1-yl)(4-((3-(4-(difluoromethoxy)phenyl)imidazo[1,2-a]pyrazin-8-yl)amino)-2-methylphenyl)methanone]
0.2 µM	COc1ccc(-c2cnc3c(Nc4ccc(C(=O)N5CCC(C(=O)NCCCN(C)C)CC5)c(C)c4)nccn23)cc1F [Example 46, N-[3-(dimethylamino)propyl]-1-[4-[[3-(3-fluoro-4-methoxyphenyl)imidazo[1,2-a]pyrazin-8-yl]amino]-2-methylbenzoyl]piperidine-4-carboxamide]
0.14 µM	COc1ccc(-c2cnc3c(Nc4ccc(C(=O)N5CCC(C(=O)NCCN(C)C)CC5)c(C)c4)nccn23)cc1F [Example 47, N-[2-(dimethylamino)ethyl]-1-[4-[[3-(3-fluoro-4-methoxyphenyl)imidazo[1,2-a]pyrazin-8-yl]amino]-2-methylbenzoyl]piperidine-4-carboxamide]

SMILES	IC90
COc1ccc(-c2cnc3c(Nc4ccc(C(=O)N5CCC(C(=O)N6CCNC(C(=O)O)C6)CC5)c(C)c4)nccn23)cc1F (stereo not shown) [Example 48, 4-[1-[4-[[3-(3-fluoro-4-methoxyphenyl)imidazo[1,2-a]pyrazin-8-yl]amino]-2-methylbenzoyl]piperidine-4-carbonyl]piperazine-2-carboxylic acid;hydrochloride]	0.93 µM

Same assay, conditions: Acinetobacter baumannii, ATCC17978, 16 h, read-out: ATCC17978 IC90, 90% growth inhibitory concentration, Acinetobacter baumannii ATCC17978, Iso-Sensitest broth, OD 600 nm over 16 h

SMILES	IC90
COc1ccc(-c2cnc3c(Nc4ccc(C(=O)N5CCC(CN)CC5)c(C)c4)nccn23)cc1F [Example 34, (4-(aminomethyl)piperidin-1-yl)(4-((3-(3-fluoro-4-methoxyphenyl)imidazo[1,2-a]pyrazin-8-yl)amino)-2-methylphenyl)methanone hydrochloride]	0.19 µM
Cc1cc(Nc2nccn3c(-c4ccc(OC(F)F)cc4)cnc23)ccc1C(=O)N1CCC(C(=O)N2CCOC(CN)C2)CC1 (stereo not shown) [Example 43, (4-(2-(aminomethyl)morpholine-4-carbonyl)piperidin-1-yl)(4-((3-(4-(difluoromethoxy)phenyl)imidazo[1,2-a]pyrazin-8-yl)amino)-2-methylphenyl)methanone hydrochloride]	0.22 µM
Cc1cc(Nc2nccn3c(-c4ccc(OC(F)F)cc4)cnc23)ccc1C(=O)N1CCC(N2CCNCC2)CC1 [Example 45, (4-((3-(4-(difluoromethoxy)phenyl)imidazo[1,2-a]pyrazin-8-yl)amino)-2-methylphenyl)(4-(piperazin-1-yl)piperidin-1-yl)methanone hydrochloride]	0.19 µM
CNCCCNC(=O)C1CCN(C(=O)c2ccc(Nc3nccn4c(-c5ccc(OC)c(F)c5)cnc34)cc2C)CC1 [Example 49, 1-(4-((3-(3-fluoro-4-methoxyphenyl)imidazo[1,2-a]pyrazin-8-yl)amino)-2-methylbenzoyl)-N-(3-(methylamino)propyl)piperidine-4-carboxamide hydrochloride]	0.27 µM
CN[C@@H]1CCN(C(=O)C2CCN(C(=O)c3ccc(Nc4nccn5c(-c6ccc(OC)c(F)c6)cnc45)cc3C)CC2)C1 [Example 50, (R)-(1-(4-((3-(3-fluoro-4-methoxyphenyl)imidazo[1,2-a]pyrazin-8-yl)amino)-2-methylbenzoyl)piperidin-4-yl)(3-(methylamino)pyrrolidin-1-yl)methanone hydrochloride]	0.29 µM
CNCCCCNC(=O)C1CCN(C(=O)c2ccc(Nc3nccn4c(-c5ccc(OC)c(F)c5)cnc34)cc2C)CC1 [Example 51, 1-(4-((3-(3-fluoro-4-methoxyphenyl)imidazo[1,2-a]pyrazin-8-yl)amino)-2-methylbenzoyl)-N-(4-(methylamino)butyl)piperidine-4-carboxamide hydrochloride]	0.29 µM
COc1ccc(-c2cnc3c(Nc4ccc(C(=O)N5CCC(C(=O)NCCCN)CC5)c(C)c4)nccn23)cc1F [Example 52, N-(3-aminopropyl)-1-(4-((3-(3-fluoro-4-methoxyphenyl)imidazo[1,2-a]pyrazin-8-yl)amino)-2-methylbenzoyl)piperidine-4-carboxamide hydrochloride]	0.23 µM
COc1ccc(-c2cnc3c(Nc4ccc(C(=O)N5CCC(C(=O)N6CCNC(CO)C6)CC5)c(C)c4)nccn23)cc1F (stereo not shown) [Example 53, (1-(4-((3-(3-fluoro-4-methoxyphenyl)imidazo[1,2-a]pyrazin-8-yl)amino)-2-methylbenzoyl)piperidin-4-yl)(3-(hydroxymethyl)piperazin-1-yl)methanone 2,2,2-trifluoroacetate]	0.27 µM
COc1ccc(-c2cnc3c(Nc4ccc(C(=O)N5CCC(C(=O)NCC6(O)CCNC6)CC5)c(C)c4)nccn23)cc1F (stereo not shown) [Example 54, 1-(4-((3-(3-fluoro-4-methoxyphenyl)imidazo[1,2-a]pyrazin-8-yl)amino)-2-methylbenzoyl)-N-((3-hydroxypyrrolidin-3-yl)methyl)piperidine-4-carboxamide 2,2,2-trifluoroacetate]	0.37 µM
COc1ccc(-c2cnc3c(Nc4ccc(C(=O)N5CCC(C(=O)NCC(O)CN)CC5)c(C)c4)nccn23)cc1F (stereo not shown) [Example 55, N-(3-amino-2-hydroxypropyl)-1-(4-((3-(3-fluoro-4-methoxyphenyl)imidazo[1,2-a]pyrazin-8-yl)amino)-2-methylbenzoyl)piperidine-4-carboxamide 2,2,2-trifluoroacetate]	0.39 µM
COc1ccc(-c2cnc3c(Nc4ccc(C(=O)N5CCC(C(=O)N[C@@H]6CNC[C@H]6O)CC5)c(C)c4)nccn23)cc1F [Example 56, 1-(4-((3-(3-fluoro-4-methoxyphenyl)imidazo[1,2-a]pyrazin-8-yl)amino)-2-methylbenzoyl)-N-((3R,4R)-4-hydroxypyrrolidin-3-yl)piperidine-4-carboxamide 2,2,2-trifluoroacetate]	0.22 µM
COc1ccc(-c2cnc3c(Nc4ccc(C(=O)N5CCC(C(=O)NC6CNC6)CC5)c(C)c4)nccn23)cc1F [Example 57, N-(azetidin-3-yl)-1-(4-((3-(3-fluoro-4-methoxyphenyl)imidazo[1,2-a]pyrazin-8-yl)amino)-2-methylbenzoyl)piperidine-4-carboxamide 2,2,2-trifluoroacetate]	0.25 µM
COc1ccc(-c2cnc3c(Nc4ccc(C(=O)N5CCC(C(=O)NCC6(O)CNC6)CC5)c(C)c4)nccn23)cc1F [Example 58, 1-(4-((3-(3-fluoro-4-methoxyphenyl)imidazo[1,2-a]pyrazin-8-yl)amino)-2-methylbenzoyl)-N-((3-hydroxyazetidin-3-yl)methyl)piperidine-4-carboxamide 2,2,2-trifluoroacetate]	0.25 µM

Same assay, conditions: read-out: ATCC17978 IC90; 90% growth inhibitory concentration, Acinetobacter baumannii ATCC17978, Iso-Sensitest broth, OD 600 nm over 16 h; hydrochloride

SMILES	IC90
Cc1cc(Nc2nccn3c(-c4ccc(OC(F)F)cc4)cnc23)ccc1C(=O)N1CCN(C(=O)CN)CC1 [Example 37, 2-amino-1-(4-(4-((3-(4-(difluoromethoxy)phenyl)imidazo[1,2-a]pyrazin-8-yl)amino)-2-methylbenzoyl)piperazin-1-yl)ethanone hydrochloride]	0.18 µM

— US20230011869A1 (Hoffmann-La Roche Inc., priority 2018, published 2023)
